# In PMC8369832, “Purification and Characterization of a Thermo- and pH-Stable Laccase From the Litter-Decomposing Fungus Gymnopus luxurians and Laccase Mediator Systems for Dye Decolorization” (Frontiers in Microbiology, 2021):
# System: T1, GLL (purified laccase from Gymnopus luxurians)
# T1 construct: native extracellular enzyme purified from fermentation broth; monomer, 64 kDa (SDS-PAGE and gel filtration); N-terminus AIGPVTDLHI; gene not cloned; N-terminus very unlike hypothetical G. luxurians laccases KIK69235.1, KIK58304.1, KIK56882.1
# Assay: spectrophotometric oxidation at […] nm, Lineweaver-Burk plot
# Assay type: biochemical, Collybiopsis luxurians
# Settings: pH 2.2 (50 mM citric acid-Na2HPO4), 37 °C; ABTS 12.5-800 μM; free enzyme
structure (smiles),measurement,value
"CCn1c(=NN=c2sc3cc(S(=O)(=O)O)ccc3n2CC)sc2cc(S(=O)(=O)O)ccc21 [ABTS, 2,2′-azino-bis(3-ethylbenzothiazoline-6-sulfonic acid)]",Km,539 µM
